# According to US8097650B2, “Method of treating a condition associated with phosphorylation of TASK-1” (The Trustees of Columbia University In The City of New York, priority 2005, dated 2012):
# Where two headings read alike, the source gives them in different places.
# How the values were obtained:
# murine TASK-1 [1] = assay: TASK-1 current expressed in CHO cells (whole-cell ramp clamp); assay type: cell-based, mouse
# Experimental: The TASK-1 clone (provided by Professor Y. Kurachi, Osaka University) was co-transfected in CHO cells with CD8 plasmid using Lipofectamine Plus (Invitrogen) according to the manufacturer's instructions. 48 h later cells were transferred to the electrophysiology chamber and anti-CD8 coated beads (Dynal Biotech) were added to identify CD8 expressing cells. Expressing cells were voltage clamped using a ramp clamp (see below). CHO cells were used in these experiments, in part, because they express endogenous PAFR.
# Chinese hamster ovary cells (CHO) were grown in F-12 medium supplemented with 10% fetal bovine serum. Twenty-four hours prior to transfection, cells were seeded into 6 well plates at 80-90% of confluence. Transfections were carried out with the GeneJammer transfection reagent (Stratagene) according to the manufacturer's instructions. Briefly, cells were washed with PBS and their medium replaced with supplemented F-12 medium (900 μl/well). For each well, GeneJammer (6 μl) was incubated with Opti-MEM (90 μl) followed by the addition of DNA (1 μg). This mixture was then added to the wells and 3 h later an additional 2 ml of supplemented F-12 medium was added. After incubating overnight, the cells were washed and their medium replaced.
# Cells were either co-transfected with pCMV-TASK1 together with pEGFP-C1 (1 μg total, 3:1) or transfected with […] or T381A-pTIE (1 μg). 48 h after the transfection the cells were checked under the microscope for green fluorescence. Approximately 20% of the cells were positive for EGFP and these were then used for patch-clamp experiments. Due to the culture-to-culture variability in the expression of TASK-1 current, most comparisons were made on matched controls from the same transfection. Summary results were then obtained by pooling data from several different culture preparations.
# The myocyte suspension or the coverslip with CHO cells was placed into a perfusion chamber, mounted on the stage of an inverted microscope. Unless otherwise indicated, CHO cells were superfused at room temperature with standard external Tyrode's buffer, containing (mM): NaCl, 140; KCl, 5.4; CaCl2, 1; MgCl2, 1; HEPES, 5; glucose, 10; adjusted to pH 7.4. Recordings were begun after the current reached a stable baseline (usually 3 to 4 min after initial cell rupture). In myocytes, TASK-1 current is small and exists in the presence of numerous larger K^+ currents. In order to increase the inward component of TASK-1 current and to block other potassium currents in myocytes, a modified high K^+ external solution (modified Tyrode's) was used to reduce outward rectification of TASK-1 current. The composition of this solution-was (in mM): NaCl, 100; KCl, 50; CaCl2, 1; MgCl2, 1; HEPES, 5; glucose, 10; tetraethylammonium (TEA), 1; CsCl, 5; adjusted to pH 7.4. Membrane potential and current were measured in the whole cell configuration using borosilicate glass pipettes with a tip resistance between […] and filled with a pipette solution containing (mM): aspartic acid, 130; KOH, 146; NaCl, 10; CaCl2, 2; EGTA, 5; HEPES, 10; MGATP, 2; pH 7.2. The stock solutions of C-PAF and of the PKC inhibitor, bisindolylmaleimide (BIM-I; Calbiochem), were prepared in water and diluted to the final concentrations in Tyrode's or modified Tyrode's, as appropriate. The PKC activator, PMA, was prepared in DMSO and then diluted in Tyrode's. […] Myocytes treated with the peptides were monitored continuously beginning immediately after rupture to detect the occurrence of any arrhythmias during dialysis of the peptide. Application of C-PAF to cells treated with the inhibitor peptide was started after the peptide had been permitted to dialyse into the cell (8-10 min after rupture for CHO or 10-12 min after rupture for myocytes).
# The current and the voltage protocols were generated using Clampex 8.0 software applied by means of an Axopatch 200-B and a Digidata 1200 interface (Axon Instruments). […]
# human TASK-1 T383A = assay: Human TASK-1 T383A mutant current in CHO cells; assay type: cell-based; details: Tyrode's pH 8, ramp
# Source text: FIGS. 24A-24B. Mutations in human TASK-1 remove the sensitivity to C-PAF and PMA when the channel is expressed in CHO cells. Two human TASK-1 (hTASK-1) mutants in which either serine-358 was converted to alanine (S358A) or threonine-383 was converted to alanine (T383A) were generated and separately expressed in CHO cells. The C-PAF-sensitive (24A) and PMA-sensitive currents (24B) were obtained in Tyrode's at pH 8 using a ramp protocol in […] configuration, essentially as described in FIG. 15. […] However, the S358A channel was not inhibited in the presence of C-PAF (24A) and the T383A channel was not inhibited by PMA (24B).
# [2] = tested on: murine TASK-1 T381A mutant; assay: T381A mutant TASK-1 current in CHO cells; assay type: cell-based, mouse
# Experimental: pCMV-TASK1 (cTBAK) consists of a 1.9 kb sequence of murine TASK-1 inserted in pcDNA3.1 (a kind gift of Dr. Yoshihisa Kurachi, University of Osaka, Japan) and has been previously described (Leonoudakis D et al. (1998) J Neurosci 18: 868-877). pEGFP-C1 and pIRES-EGFP were purchased from Clontech. pTIE (TASK1-IRES-EGFP) was constructed by inserting a 1.9 kb EcoR1 fragment from pCMV-TASK1 into EcoR1 digested pIRES-EGFP. Site-directed mutagenesis was performed on pTIE using the Quik-Change kit (Stratagene) following the manufacturer's instructions. […]
# Cells were either co-transfected with pCMV-TASK1 together with pEGFP-C1 (1 μg total, 3:1) or transfected with […] or T381A-pTIE (1 μg). 48 h after the transfection the cells were checked under the microscope for green fluorescence. […]
# The myocyte suspension or the coverslip with CHO cells was placed into a perfusion chamber, mounted on the stage of an inverted microscope. […] Membrane potential and current were measured in the whole cell configuration using borosilicate glass pipettes with a tip resistance between […] and filled with a pipette solution containing (mM): aspartic acid, 130; KOH, 146; NaCl, 10; CaCl2, 2; EGTA, 5; HEPES, 10; MGATP, 2; pH 7.2. […] Myocytes treated with the peptides were monitored continuously beginning immediately after rupture to detect the occurrence of any arrhythmias during dialysis of the peptide. […]
# PKC = details: cited from earlier work
# TASK-1 [3] = biological target: T1, TASK-1 (Mus musculus, UniProt O35111); assay: C-PAF-sensitive steady-state current in murine ventricular myocytes (voltage clamp); assay type: cell-based
# T1 construct: endogenous in cells; host or cells: adult mouse ventricular myocytes (C57/B16 background; WT or PAFR KO)
# T1 sequence (O35111 whole entry): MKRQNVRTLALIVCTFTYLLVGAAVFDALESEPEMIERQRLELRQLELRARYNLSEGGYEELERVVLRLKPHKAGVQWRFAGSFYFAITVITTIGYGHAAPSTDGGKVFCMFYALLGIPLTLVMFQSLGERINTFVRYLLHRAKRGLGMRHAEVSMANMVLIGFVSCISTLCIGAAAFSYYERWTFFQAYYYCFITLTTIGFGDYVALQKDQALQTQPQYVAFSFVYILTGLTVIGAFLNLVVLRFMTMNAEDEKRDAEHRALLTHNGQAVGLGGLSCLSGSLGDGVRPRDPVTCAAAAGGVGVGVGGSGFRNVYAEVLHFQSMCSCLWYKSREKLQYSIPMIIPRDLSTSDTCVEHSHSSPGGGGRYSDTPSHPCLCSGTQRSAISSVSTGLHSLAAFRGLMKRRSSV
# Experimental: (§1) Adult mice, 2-3 months old, were anesthetized with ketamine/xylazine and their hearts were removed according to protocols approved by the Columbia University-IACUC. Experiments were performed on single rod-shaped, quiescent ventricular myocytes dissociated using a standard retrograde collagenase perfusion (Kuznetsov V et al. (1995) Circ Res 76: 40-52) from hearts of mice that were either wild-type (WT), or PAFR knockouts (KO). Both WT and KO mice were bred on a C57/B16 background. The derivation of the KO mice has been described previously (Hoffman, B F et al.(1996) J Cardiovasc Electrophysiol 7:120-133).
# (§2) Prior to electrophysiological measurements, cells were placed into the perfusion chamber and superfused at room temperature with Tyrode's buffer (in mM: NaCl, 140; KCl, 5.4; CaCl2 1; MgCl2, Hepes, 5; Glucose, 10; pH 7.4). The whole-cell patch clamp technique was used with pipettes having resistances of 1.5-3 MΩ (intracellular solution, in mM: aspartic acid, 130; KOH, 146; NaCl, 10; CaCl2, 2; EGTA, 5; Hepes, 10; MgATP, 2; pH 7.2). Solutions of C-PAF, the PAFR antagonist, CV-6209 (Biomol) and the PKC inhibitor, bisindolylmaleimide I (BIM I; Calbiochem) were prepared in water and diluted in Tyrode's before use. […] A custom-made fast perfusion device was used to exchange the solution around the cell within 1 s (DiFrancesco et al. (1986) J Physiol 377: 61-88).
# (§3) Current and voltage protocols were generated using Clampex 7.0 software applied by means of an Axopatch 200B amplifier and a Digidata 1200 interface (Axon Instruments). During voltage clamp, steady state current traces were acquired at 500 Hz and final filtered at 10 Hz. During current clamp, membrane voltage was acquired at 5 KHz and filtered at 1 KHz. Ramp clamps were conducted by imposing a voltage ramp (14 mV/s) at a 500 Hz acquisition rate with 1 kHz filtering. Data were analyzed using pCLAMP 8.0 (Axon) and Origin 6.0 (Microcal) and are presented as mean±SEM. Steady-state current was determined by computer calculation of average current over a time period of at least 5 s. In all experiments, the n value indicates the number of myocytes studied, and represents pooled data from at least 2 (voltage clamp) or 3 (current clamp) animals. Student's t-test, one-way ANOVA and χ^2 tests were used; a value of p<0.05 was considered statistically significant. Records have been corrected for the junction potential, which was measured to be 9.8 mV.
# quiescent myocytes = assay: Spontaneous activity in quiescent mouse ventricular myocytes (current clamp); assay type: cell-based
# Experimental: as §1, §2, §3
# TASK-1 [4] = biological target: T1, TASK-1; assay: Methanandamide-sensitive current in murine ventricular myocytes; assay type: cell-based
# Source text: as §2
# Current and voltage protocols were generated using Clampex 7.0 software applied by means of an Axopatch 200B amplifier and a Digidata 1200 interface (Axon Instruments). During voltage clamp, steady state current traces were acquired at 500 Hz and final filtered at 10 Hz. […] Data were analyzed using pCLAMP 8.0 (Axon) and Origin 6.0 (Microcal) and are presented as mean±SEM. Steady-state current was determined by computer calculation of average current over a time period of at least 5 s. […] Records have been corrected for the junction potential, which was measured to be 9.8 mV.
# murine TASK-1 [5] = details: typical, from Barbuti et al. 2002; cited from earlier work
# [6] = tested on: adult rat ventricular myocytes; assay: Methanandamide-induced arrhythmias in cultured adult rat ventricular myocytes; assay type: cell-based; details: paced at 1 Hz
# Experimental: FIG. 28. Methanandamide-induced arrhythmias are prevented by over expression of TREK-1 in cultured myocytes. The action potentials of cultured adult rat ventricular myocytes were recorded in current clamp mode during stimulation at 1 Hz.
# The action potentials of cultured adult rat ventricular myocytes were recorded in current clamp mode during stimulation at 1 Hz.
smiles,measurement,setting,value
"CCCCCCCCCCCCCC(=O)O[C@@H]1[C@@H](C)[C@@]2(O)[C@@H](C=C(CO)C[C@]3(O)C(=O)C(C)=C[C@@H]23)[C@@H]2C(C)(C)[C@]12OC(C)=O [PMA, phorbol 12-myristate 13-acetate]",TASK-1 current density in the presence of drug,"murine TASK-1 [1]; +30 mV, C-PAF 185 nM or PMA 100 nM, no peptide",59.2±10.1 pA/pF
same,inhibition of TASK-1 current,"murine TASK-1 [1]; +30 mV, PMA 100 nM (n=17), C-PAF 185 nM (n=20)",19.8±2.7%
same,TASK-1 current density after drug,"murine TASK-1 [1]; PKCε-inhibitor peptide 100 nM in pipette, C-PAF 185 nM or PMA 100 nM",41.2±12.3 pA/pF
same,TASK-1 current density after drug,"murine TASK-1 [1]; scrambled peptide 100 nM in pipette, PMA 100 nM",36.6±6.2 pA/pF
same,inhibition of T383A channel,human TASK-1 T383A,not inhibited
same,sensitivity of mutant channel to PMA,[2],nor is it sensitive to PMA treatment
"CN(C)CCCn1cc(C2=C(c3c[nH]c4ccccc34)C(=O)NC2=O)c2ccccc21 [BIM I, bisindolylmaleimide I]",C-PAF-sensitive current in the presence of PKC inhibitor,"murine TASK-1 [1]; BIM-I 100 nM, C-PAF 185 nM",no measurable C-PAF-sensitive current
same,Ki,PKC,14 nM
same,effect on C-PAF-sensitive current,"TASK-1 [3]; BIM I 100 nM, −10 mV",completely blocked
same,effect of PKC inhibitor or inactive analogue on C-PAF-sensitive current,"TASK-1 [3]; BIM I 40 and 100 nM, BIM V, −10 mV",blocked in a dose-dependent manner
same,quiescent WT cells that failed to respond to C-PAF,"quiescent myocytes; BIM I 100 nM, C-PAF 185 nM",6 of 8
same,effect on methanandamide-sensitive current,"TASK-1 [4]; BIM I 100 nM, WT myocytes",significantly reduced
CCCCC/C=C\C/C=C\C/C=C\C/C=C\CCCC(=O)N[C@H](C)CO [methanandamide],inhibition of TASK-1 current,murine TASK-1 [5],approximately 60%
same,effect on C-PAF-sensitive current,"TASK-1 [3]; held at −10 mV, C-PAF 185 nM, Ba2+ 3 mM, Zn2+ 3 mM, lipids and ATFK 10 μM",inhibited
same,quiescent WT myocytes with spontaneous action potentials,quiescent myocytes; methanandamide 10 μM,7 of 12
same,arrhythmias in control cells expressing only GFP,[6],typical arrythmias were observed
same,arrhythmias in myocytes overexpressing GFP and TREK-1,[6],unable to induce arrhythmias
same,methanandamide-sensitive current with PAFR blocked or absent,"TASK-1 [4]; methanandamide 10 μM, CV-6209 100 nM or PAFR KO myocytes",fully effective
